Results as given in patent US20040214184A1, “Small peptides capable of modulating the function of cd66 (ceacam) family members” (priority 2001, published 2004).
Entries after “also recorded” stand apart in the source; their conditions may differ.

Test system: T-cells
Experiment: T-cell activation assay (anti-CD3 stimulated proliferation, 3H-Tdr incorporation)
Assay type: cell-based
Details: for activity in the T-cell activation assay (T-cell activation by anti-CD3, proliferation quantitated by 3H-Tdr incorporation): 30 min preincubation, anti-CD3 0.3 μg/ml, 56 h then 16 h with 3H-Tdr
Method: FIG. 1. Effects of CD66a peptides on T-cell activation by anti-CD3. T-cells were added to media containing the indicated CD66a peptide S28 ((CD66a-24), (SEQ ID NO:1)) at 150 μg/ml (final concentration) or positive or negative controls in 96 well microtiter plates, and the plates were incubated at 37° C. for 30 min in 5% CO2. Media containing anti-CD3 anitbody was then added and the cells were incubated at […] for 56 hours. Twenty μL of media containing 1 μCi of ^3H-Tdr was then added to each well and the plates were incubated at 37° C. for 30 min in 5% CO2 for an additional 16 hours. The cells were then harvested onto glass fiber filter papers and the radioactivity incorporated into the cells was then determined by liquid scintillation counting. Values are shown as the amount of ^3H-Tdr incorporation in the presence of the indicated peptide as a percent of that incorpoated in the absence of peptide, and represent the means+/−SD of 4 separate determinations.
Cell Preparation. Peripheral blood mononuclear cells (PBMC) were isolated by centrifugation of heparinized blood on a Ficoll/Hypaque (Pharmacia, Uppsala, Sweden) density gradient. Cells from the interface of the gradient were harvested, and resuspended at a concentration of 10^6/ml in medium [RPMI-1640 supplemented with 10% heat inactivated fetal bovine serum, 2 mM L-glutamine, 10 mM HEPES buffer, pH 7.4, 100 U/ml penicillin and 100 ug/ml streptomycin (Gibco, Paisley, U.K.)]. To isolate T-cells, adherent cells were eliminated from PBMC by culture for one hour at 37° C. in 5% CO2 on tissue culture-treated plastic. Remaining B-cells, monocytes, and NK cells were deleted by immunomagnetic negative selection using anti-CD14, anti-CD19, and anti-CD56 microbeads per the manufacturer's recommendations (Miltenyi Biotec GMBH, Bergisch Gladbach, Germany). The purity of the isolated T-cells was >90% as assessed by flow cytometry using FITC-labeled anti-CD3 (Pharmingen, Hamburg, Germany).
T-cell activation assay. Purified T-cells (1×10^5/well) were plated into flat-bottomed 96 well microtiter plates (Greiner, Frickenhausen, Germany) and peptides were added at the indicated concentration. T-cells were incubated with the peptides for 30 min and then stimulated by adding 0.3 μg/ml of anti-CD3 mAb (Pharmingen). The cells were then incubated at 37° C. in 5% CO2 for 56 hours. One μCi of tritiated thymidine (3H-Tdr) (Amersham Buchler, Braunschweig, Germany) in 20 μl of RPMI-1640 was then added to each well, and the cells were cultured for another 16 hours. Cells were then harvested with a cell harvester (Pharmacia LKB-Wallac) onto glass fiber filter paper in a minifold filtration unit (Wallac, Turku, Finland). Individual filters were dissolved in scintillation fluid, and ^3H-Tdr incorporation was measured with a liquid scintillation counter (Pharmacia).

Row | Substance | activity in the T-cell activation assay (T-cell activation by anti-CD3, proliferation quantitated by 3H-Tdr incorporation) (peptide 150 μg/ml) | T-cell proliferation (3H-Tdr incorporation) in the presence of peptide compared with media alone (positive control) (peptide 150 μg/ml, anti-CD3 stimulation, 4 determinations, p<0.05) | cell proliferation (3H-Tdr incorporation) in the presence of peptide compared with the 2 scrambled peptides S159 and S160 (peptides 150 μg/ml, anti-CD3 stimulation, 4 determinations, p<0.05)
1 | IRWFFKN [Peptide S182, smaller part (right) of peptide S28] | had activity | – | –
2 | TNDTGIS [Peptide S180, smaller part (left) of peptide S28] | had activity | – | –
3 | TGISIRW [Peptide S181, smaller part (middle) of peptide S28] | had activity | – | –
4 | TNDTGISIRWFFKN [Peptide S28, 14-amino-acid peptide derived from CD66a] | inhibited T-cell activation by anti-CD3 compared with control; also recorded: found to have activity; also recorded: potent inhibitor of T-cell activation | statistically less than that observed with media alone | statistically less than that observed with the 2 scrambled peptides
